Experimental data from patent US11771765B2, “Light augmented treatment method” (The Procter & Gamble Company, priority 2019, dated 2023).

What was measured:
M. furfur = M. furfur viability on mDixon agar plates after Piroctone Olamine and 409 nm light (Table 3); assay type: cell-based, Malassezia furfur; set-up: key to growth on mDixon agar plate (score): +: a continuous fungal lawn; +/−: a lawn with breaks allowing the agar to show; −: 0 to 5 colonies
Procedure: M. furfur is incubated for one hour with the indicated concentrations of Piroctone Olamine then a cell pellet of 4 OD*mL is collected by centrifugation so that most of the anti-fungal material has been removed. The cell pellet is suspended in 4.2 mL PBS and 1 mL samples are distributed to four 12 well plates and treated with light (409 nm, 1200 fc) for 1, 10 or 60 minutes or stored in the dark. Samples are processed as described previously with 600 uL diluted into 13 mL mDixon and 50 uL of the photolyzed cells are diluted into 50 uL of mDixon then three 40 uL+360 uL mDixon dilutions are prepared.
Where +=a continuous fungal lawn, +/−=a lawn with breaks allowing the agar to show, −=0 to 5 colonies
After the photolysis, 0.6 mL is added to 13 mL fresh mDixon and grown overnight but, in addition, 50 uL is added to 50 uL mDixon then that sample is diluted 3 more times 40 uL=>400 uL and 10 uL of each of the dilutions are plated in duplicate on mDixon agar plates.

M. furfur CBS 7982 = assay: Fractional Inhibitor Concentration (FIC): antimicrobial plus 409 nm light on M. furfur growth; assay type: cell-based, Malassezia furfur; conditions: for growth, OD 600 nm: 16 h growth
Procedure: Fractional Inhibitor Concentration (FIC) is a conventional methodology for evaluating the interaction of two antimicrobial chemicals. […] In an embodiment of the present invention, FIC is used to determine combinatorial effects of one chemical and exposure to light on Malassezia growth and/or viability in an in vitro system.
• 1. M. furfur CBS 7982 cells are exposed to a varying concentrations of an antimicrobial active (e.g. ZPT, Piroctone Olamine) for a specified amount of time (e.g. 2 min to 3 hours). • 2. After exposure, the antimicrobial is washed away by centrifugation of the cells and a series of washes • 3. Cells are then exposed to light at a wavelength of 409 nm for varying lengths of time • 4. Cells are then allowed to grow up overnight (e.g. 17 h) to determine the impact of the treatment on viability and growth of the organism by measuring OD600 II. Data Analysis: • 1. Inhibition of growth is determined to be where the OD value obtained is <=50% of the untreated control • 2. The lowest concentration value of the antimicrobial agent which inhibits growth is determined • 3. Likewise, the shortest light exposure time is determined that gives growth inhibition • 4. Finally, the combination of the lowest concentration of the antimicrobial and the shortest light exposure time that provides growth inhibition is determined • 5. The FIC value is determined using the calculation below:
[formula] • 6. The combinatorial effect of the antimicrobial and light is classified according to the chart below: […]
M. furfur is incubated for one hour with varying concentrations of Piroctone Olamine. Cell pellets are collected by centrifugation so that most of the anti-fungal material has been removed. The cell pellet is suspended in PBS and 500 uL samples are distributed to four 12 well plates and treated with light (409 nm) for 1, 10 or 60 minutes or stored in the dark. Samples are then diluted into mDixon, and incubated for 16 h with subsequent growth measured by OD 600 nm.
M. furfur is incubated for one hour with varying concentrations of Hinokitiol. Cell pellets are collected by centrifugation so that most of the anti-fungal material has been removed. The cell pellet is suspended in PBS and 500 uL samples are distributed to four 12 well plates and treated with light (409 nm) for 1, 10 or 60 minutes or stored in the dark. Samples are then diluted into mDixon, and incubated for 27 h with subsequent growth measured by OD 600 nm. […]

Structure (SMILES): Cc1cc(CC(C)CC(C)(C)C)n(O)c(=O)c1.NCCO (stereo not drawn) [Piroctone Olamine, 1-Hydroxy-4-methyl-6-(2,4,4-trimethylpentyl)-2-pyridone monoethanolamine salt]
- effect of light on viable cells (M. furfur; 8 ppm): no effect
- holding growth down overnight in the original samples (M. furfur; 8 ppm): does not hold M. furfur growth down overnight
- growth on mDixon agar plate (score) (M. furfur; 8 ppm 1 h, culture dilution 1:2, 409 nm light 1 min): +
- growth on mDixon agar plate (score) (M. furfur; 8 ppm 1 h, culture dilution 1:2, 409 nm light 10 min): +
- growth on mDixon agar plate (score) (M. furfur; 8 ppm 1 h, culture dilution 1:2, 409 nm light 60 min): +
- growth on mDixon agar plate (score) (M. furfur; 8 ppm 1 h, culture dilution 1:2, Dark): +
- growth on mDixon agar plate (score) (M. furfur; 8 ppm 1 h, culture dilution 1:20, 409 nm light 1 min): +
- growth on mDixon agar plate (score) (M. furfur; 8 ppm 1 h, culture dilution 1:20, 409 nm light 10 min): +
- growth on mDixon agar plate (score) (M. furfur; 8 ppm 1 h, culture dilution 1:20, 409 nm light 60 min): +
- growth on mDixon agar plate (score) (M. furfur; 8 ppm 1 h, culture dilution 1:20, Dark): +
- growth on mDixon agar plate (score) (M. furfur; 8 ppm 1 h, culture dilution 1:200, 409 nm light 1 min): +/−
- growth on mDixon agar plate (score) (M. furfur; 8 ppm 1 h, culture dilution 1:200, 409 nm light 10 min): +/−
- growth on mDixon agar plate (score) (M. furfur; 8 ppm 1 h, culture dilution 1:200, 409 nm light 60 min): +/−
- growth on mDixon agar plate (score) (M. furfur; 8 ppm 1 h, culture dilution 1:200, Dark): +/−
- growth on mDixon agar plate (score) (M. furfur; 8 ppm 1 h, culture dilution 1:2000, 409 nm light 1 min): +/−
- growth on mDixon agar plate (score) (M. furfur; 8 ppm 1 h, culture dilution 1:2000, 409 nm light 10 min): +/−
- growth on mDixon agar plate (score) (M. furfur; 8 ppm 1 h, culture dilution 1:2000, 409 nm light 60 min): +/−
- growth on mDixon agar plate (score) (M. furfur; 8 ppm 1 h, culture dilution 1:2000, Dark): +/−
- holding growth down overnight in the original samples (M. furfur; 16 and 32 ppm): 16 and 32 ppm do
- fewer viable cells (M. furfur; 16 and 32 ppm, 1 minute of light exposure): about 10 fold
- fewer cells (M. furfur; 16 and 32 ppm, longer light exposures): > 100 fold
- growth on mDixon agar plate (score) (M. furfur; 16 ppm 1 h, culture dilution 1:2, 409 nm light 1 min): +
- growth on mDixon agar plate (score) (M. furfur; 16 ppm 1 h, culture dilution 1:2, 409 nm light 10 min): +/−
- growth on mDixon agar plate (score) (M. furfur; 16 ppm 1 h, culture dilution 1:2, 409 nm light 60 min): +/−
- growth on mDixon agar plate (score) (M. furfur; 16 ppm 1 h, culture dilution 1:2, Dark): +
- growth on mDixon agar plate (score) (M. furfur; 16 ppm 1 h, culture dilution 1:20, 409 nm light 1 min): +/−
- growth on mDixon agar plate (score) (M. furfur; 16 ppm 1 h, culture dilution 1:20, 409 nm light 10 min): +/−
- growth on mDixon agar plate (score) (M. furfur; 16 ppm 1 h, culture dilution 1:20, 409 nm light 60 min): +/−
- growth on mDixon agar plate (score) (M. furfur; 16 ppm 1 h, culture dilution 1:20, Dark): +
- growth on mDixon agar plate (score) (M. furfur; 16 ppm 1 h, culture dilution 1:200, 409 nm light 1 min): +/−
- growth on mDixon agar plate (score) (M. furfur; 16 ppm 1 h, culture dilution 1:200, 409 nm light 10 min): − (0 to 5 colonies)
- growth on mDixon agar plate (score) (M. furfur; 16 ppm 1 h, culture dilution 1:200, 409 nm light 60 min): − (0 to 5 colonies)
- growth on mDixon agar plate (score) (M. furfur; 16 ppm 1 h, culture dilution 1:200, Dark): +/−
- growth on mDixon agar plate (score) (M. furfur; 16 ppm 1 h, culture dilution 1:2000, 409 nm light 1 min): +/−
- growth on mDixon agar plate (score) (M. furfur; 16 ppm 1 h, culture dilution 1:2000, 409 nm light 10 min): − (0 to 5 colonies)
- growth on mDixon agar plate (score) (M. furfur; 16 ppm 1 h, culture dilution 1:2000, 409 nm light 60 min): − (0 to 5 colonies)
- growth on mDixon agar plate (score) (M. furfur; 16 ppm 1 h, culture dilution 1:2000, Dark): +/−
- growth on mDixon agar plate (score) (M. furfur; 32 ppm 1 h, culture dilution 1:2, 409 nm light 1 min): +
- growth on mDixon agar plate (score) (M. furfur; 32 ppm 1 h, culture dilution 1:2, 409 nm light 10 min): +/−
- growth on mDixon agar plate (score) (M. furfur; 32 ppm 1 h, culture dilution 1:2, 409 nm light 60 min): +/−
- growth on mDixon agar plate (score) (M. furfur; 32 ppm 1 h, culture dilution 1:2, Dark): +
- growth on mDixon agar plate (score) (M. furfur; 32 ppm 1 h, culture dilution 1:20, 409 nm light 1 min): +/−
- growth on mDixon agar plate (score) (M. furfur; 32 ppm 1 h, culture dilution 1:20, 409 nm light 10 min): +/−
- growth on mDixon agar plate (score) (M. furfur; 32 ppm 1 h, culture dilution 1:20, 409 nm light 60 min): +/−
- growth on mDixon agar plate (score) (M. furfur; 32 ppm 1 h, culture dilution 1:20, Dark): +
- growth on mDixon agar plate (score) (M. furfur; 32 ppm 1 h, culture dilution 1:200, 409 nm light 1 min): +/−
- growth on mDixon agar plate (score) (M. furfur; 32 ppm 1 h, culture dilution 1:200, 409 nm light 10 min): +/−
- growth on mDixon agar plate (score) (M. furfur; 32 ppm 1 h, culture dilution 1:200, 409 nm light 60 min): − (0 to 5 colonies)
- growth on mDixon agar plate (score) (M. furfur; 32 ppm 1 h, culture dilution 1:200, Dark): +/−
- growth on mDixon agar plate (score) (M. furfur; 32 ppm 1 h, culture dilution 1:2000, 409 nm light 1 min): +/−
- growth on mDixon agar plate (score) (M. furfur; 32 ppm 1 h, culture dilution 1:2000, 409 nm light 10 min): − (0 to 5 colonies)
- growth on mDixon agar plate (score) (M. furfur; 32 ppm 1 h, culture dilution 1:2000, 409 nm light 60 min): − (0 to 5 colonies)
- growth on mDixon agar plate (score) (M. furfur; 32 ppm 1 h, culture dilution 1:2000, Dark): +/−
- shortest light exposure time when applied in combination to give growth inhibition (M. furfur CBS 7982; 409 nm light, with the lowest inhibiting concentration): 1 min
- growth, OD 600 nm (M. furfur CBS 7982; Piroctone Olamine 4 ppm 1 h, 409 nm light 0 min): 3.6
- growth, OD 600 nm (M. furfur CBS 7982; Piroctone Olamine 4 ppm 1 h, 409 nm light 1 min): 4.1
- growth, OD 600 nm (M. furfur CBS 7982; Piroctone Olamine 4 ppm 1 h, 409 nm light 10 min): 3.9
- growth, OD 600 nm (M. furfur CBS 7982; Piroctone Olamine 4 ppm 1 h, 409 nm light 60 min): 3.7
- growth, OD 600 nm (M. furfur CBS 7982; Piroctone Olamine 8 ppm 1 h, 409 nm light 0 min): 3.9
- growth, OD 600 nm (M. furfur CBS 7982; Piroctone Olamine 8 ppm 1 h, 409 nm light 1 min): 0.1
- growth, OD 600 nm (M. furfur CBS 7982; Piroctone Olamine 8 ppm 1 h, 409 nm light 10 min): 0.0
- growth, OD 600 nm (M. furfur CBS 7982; Piroctone Olamine 8 ppm 1 h, 409 nm light 60 min): 0.0
- growth, OD 600 nm (M. furfur CBS 7982; Piroctone Olamine 16 ppm 1 h, 409 nm light 0 min): 2.6
- growth, OD 600 nm (M. furfur CBS 7982; Piroctone Olamine 16 ppm 1 h, 409 nm light 1 min): 0.1
- growth, OD 600 nm (M. furfur CBS 7982; Piroctone Olamine 16 ppm 1 h, 409 nm light 10 min): 0.0
- growth, OD 600 nm (M. furfur CBS 7982; Piroctone Olamine 16 ppm 1 h, 409 nm light 60 min): 0.0
- growth, OD 600 nm (M. furfur CBS 7982; Piroctone Olamine 32 ppm 1 h, 409 nm light 0 min): 2.1
- growth, OD 600 nm (M. furfur CBS 7982; Piroctone Olamine 32 ppm 1 h, 409 nm light 1 min): 0.2
- growth, OD 600 nm (M. furfur CBS 7982; Piroctone Olamine 32 ppm 1 h, 409 nm light 10 min): 0.0
- growth, OD 600 nm (M. furfur CBS 7982; Piroctone Olamine 32 ppm 1 h, 409 nm light 60 min): 0.0
- growth, OD 600 nm (M. furfur CBS 7982; Piroctone Olamine 64 ppm 1 h, 409 nm light 0 min): 1.3
- growth, OD 600 nm (M. furfur CBS 7982; Piroctone Olamine 64 ppm 1 h, 409 nm light 1 min): 0.1
- growth, OD 600 nm (M. furfur CBS 7982; Piroctone Olamine 64 ppm 1 h, 409 nm light 10 min): 0.0
- growth, OD 600 nm (M. furfur CBS 7982; Piroctone Olamine 64 ppm 1 h, 409 nm light 60 min): 0.0
- lowest concentration to give growth inhibition (M. furfur CBS 7982; antimicrobial alone, no light, inhibition = OD <=50% of untreated control): 64 ppm
- FIC value (M. furfur CBS 7982; antimicrobial plus 409 nm light): 0.14
- Combinatorial Effect (M. furfur CBS 7982; antimicrobial plus 409 nm light, classified by FIC value): synergistic
- lowest concentration when applied in combination with light to give growth inhibition (M. furfur CBS 7982; with 409 nm light, inhibition = OD <=50% of untreated control): 8 ppm
